Reference: US20080207745A1, “Orally-absorbed formulation for paromomycin” (priority 2007, published 2008)
Several values for one entry are separate records, joined by “and”; a condition that tells them apart may be missing. Equal values may be shown once. Where a name gives a salt, the structure may show the parent alone. Read-outs that look alike come from different tables or passages of the source.

Assays:
[1] = historically considered (ref. 6); cited from earlier work
[2] = In vitro PAR transport across harvested intestinal segments, EasyMount Ussing System: duodenum; type: in vitro ADME; conditions: rat, 5 mg/ml (~25 mg) paromomycin in mucosal chamber, tissue area 0.5 sq cm
Method: (§1) HEPES buffer was used as the base mucosal and serosal fluid. […] First 5 ml of HEPES buffer was added to each of the two chambers (mucosal and serosal) and allowed to equilibrate for 20 min. […] Aliquots of sample solution were removed from the chamber on other side of the mounted intestinal segment periodically and replaced with an equal volume of fresh warm HEPES buffer.
(§2) These additives, either alone or in combinations, were dissolved in HEPES buffer on percent weight/weight basis of the HEPES medium. Owing to the expected variation in the in-vitro conditions and harvested rat intestinal segments, four replicates were used per experimental condition.
(§3) The apparent permeability coefficients (Papp) were calculated according to:
(§4) Papp=(dQ/dt)/C0×A, where dQ/dt is the linear appearance rate of mass in receiver compartment, C0 is the initial solute concentration in donor compartment, and A is the surface area.
(§5) The drug in post column eluant was derivatized with Dinitrofluorobenzene (DNFB) and monitored at 360 nm. The run time was 30 minutes.

[3] = Paromomycin in vivo absorption (pharmacokinetic) studies in rats; parameters: species or system Male rats (Sprague Dawley)
Method: Paromomycin was extracted from plasma samples (100 μl volume) with phenylboronic acid solid phase extraction columns, and the bound drug was eluted from the columns with 1% (v/v) formic acid in water. The acid eluates were evaporated under vacuum, and then the dry residues were reconstituted in 100 μl of 1 mM heptafluorobutyric acid (HFBA) in water.

[4] = In vitro PAR transport across harvested intestinal segments, EasyMount Ussing System: ileum; type: in vitro ADME; conditions: rat, 5 mg/ml (~25 mg) paromomycin in mucosal chamber, tissue area 0.5 sq cm
Method: as §1, §2, §3, §4, §5

[5] = In vitro PAR transport across harvested intestinal segments, EasyMount Ussing System: colon; type: in vitro ADME; conditions: rat, 5 mg/ml (~25 mg) paromomycin in mucosal chamber, tissue area 0.5 sq cm
Method: as §1, §2, §3, §4, §5

[6] = In vitro PAR transport across harvested intestinal segments, EasyMount Ussing System: jejunum; type: in vitro ADME; conditions: rat; for Papp at 15 mg/ml: 15 mg/ml PAR
Method: HEPES buffer was used as the base mucosal and serosal fluid. […] First 5 ml of HEPES buffer was added to each of the two chambers (mucosal and serosal) and allowed to equilibrate for 20 min. […] Aliquots of sample solution were removed from the chamber on other side of the mounted intestinal segment periodically and replaced with an equal volume of fresh warm HEPES buffer. […] These additives, either alone or in combinations, were dissolved in HEPES buffer on percent weight/weight basis of the HEPES medium. Owing to the expected variation in the in-vitro conditions and harvested rat intestinal segments, four replicates were used per experimental condition. The apparent permeability coefficients (Papp) were calculated according to: Papp=(dQ/dt)/C0×A, where dQ/dt is the linear appearance rate of mass in receiver compartment, C0 is the initial solute concentration in donor compartment, and A is the surface area. […] The drug in post column eluant was derivatized with Dinitrofluorobenzene (DNFB) and monitored at 360 nm. The run time was 30 minutes.

[7] = male rats, i.v. 100 mg/kg, Group #1, individual rats, 100 mg/kg
[8] = male, Sprague Dawley, rat, plasma, iv, 100 mg/kg, i.v. 100 mg/kg, Group #1, Mean of 3 rats

## NC[C@@H]1O[C@H](O[C@H]2[C@@H](O)[C@H](O[C@@H]3[C@@H](O)[C@H](N)C[C@H](N)[C@H]3O[C@H]3O[C@H](CO)[C@@H](O)[C@H](O)[C@H]3N)O[C@@H]2CO)[C@H](N)[C@@H](O)[C@@H]1O [PAR, Paromomycin sulfate]
[1]
  oral bioavailability: close to zero
[2]
  Papp at […], 5 mg/ml: 19.4 nm/s
[3]; male rats, i.v. 100 mg/kg in sterile saline, Group #1, individual rats, 100 mg/kg
  t1/2: 2.70 h and 2.86 h
[3]; male rats, i.v. 100 mg/kg, Group #1, Mean of 3 rats
  V: 5.40 L/kg
[3]; [7]
  AUC: 55.465 µg·h/mL and 85.847 µg·h/mL
  Cl: 1.80 L/h/kg and 1.16 L/h/kg
  Cmax: 95.651 µg/mL and 101.318 µg/mL
  V: 4.39 L/kg and 7.01 L/kg and 4.80 L/kg
[3]; male, Sprague Dawley, rat, plasma, iv, 100 mg/kg, i.v. 100 mg/kg in sterile saline, Group #1, individual rats
  half-life: 2.85 h
[3]; [8]
  clearance: 1.34 L/h/kg
  half-life: 2.8 h
[3]; male, Sprague Dawley, rat, plasma, iv, 100 mg/kg, i.v. 100 mg/kg, Group #1, Mean of 3 rats, read-out: AUC
  AUC: 78.3 µg·h/mL
[3]; male, Sprague Dawley, rat, plasma, iv, 100 mg/kg, i.v. 100 mg/kg, Group #1, Mean of 3 rats, read-out: Cmax
  Cmax: 124 µg/mL
[3]; male, Sprague Dawley, rat, plasma, iv, 100 mg/kg, i.v. 100 mg/kg, Group #1, individual rats
  clearance: 1.07 L/h/kg
[3]; male, Sprague Dawley, rat, plasma, iv, 100 mg/kg, i.v. 100 mg/kg, Group #1, individual rats, read-out: AUC
  AUC: 93.5 µg·h/mL
[3]; male, Sprague Dawley, rat, plasma, iv, 100 mg/kg, i.v. 100 mg/kg, Group #1, individual rats, read-out: Cmax
  Cmax: 174 µg/mL
[4]
  Papp at […], 5 mg/ml: 22.2 nm/s
[5]
  Papp at […], 5 mg/ml: 20.7 nm/s
[6]; jejunum M-to-S, Sodium Decanoate in mucosal 0.2 mg/ml (equilibrated 20 min before drug)
  Papp at 15 mg/ml: 14.8 nm/s
[6]; jejunum M-to-S, Sodium Decanoate in mucosal 0.5 mg/ml (equilibrated)
  Papp at 15 mg/ml: 22.2 nm/s
[6]; jejunum M-to-S, Sodium Decanoate in mucosal 1 mg/ml (equilibrated)
  Papp at 15 mg/ml: 44 nm/s
[6]; jejunum M-to-S, Sodium Decanoate in mucosal 1 mg/ml (not equilibrated)
  Papp at 15 mg/ml: 38.3 nm/s
[6]; jejunum M-to-S, Sodium Decanoate in serosal 0.2 mg/ml (not equilibrated)
  Papp at 15 mg/ml: 38.6 nm/s
[6]; jejunum M-to-S, Sodium Decanoate in serosal 0.5 mg/ml (not equilibrated)
  Papp at 15 mg/ml: 35.4 nm/s
[6]; jejunum M-to-S, Sodium Decanoate in serosal 1.0 mg/ml (not equilibrated)
  Papp at 15 mg/ml: 72 nm/s
[6]; jejunum M-to-S, no Quinidine, no Sodium Decanoate, tissue area 0.5 sq cm
  Papp at 15 mg/ml: 26.3 nm/s
[6]; jejunum S-to-M, no Quinidine
  Papp at 15 mg/ml: 27.5 nm/s
[6]; jejunum, 5 mg/ml (~25 mg) paromomycin in mucosal chamber, tissue area 0.5 sq cm
  Papp at […], 5 mg/ml: 39.3 nm/s
[6]; with quinidine 0.05 mg/ml in mucosal chamber, jejunum M-to-S, 0.05 mg/ml Quinidine in mucosal
  Papp at 15 mg/ml: 43.7 nm/s
[6]; with quinidine 0.05 mg/ml in mucosal chamber, jejunum S-to-M, 0.05 mg/ml Quinidine in mucosal
  Papp at 15 mg/ml: 18.5 nm/s
